This note sets out measurements from patent US4734410A, “Lactam derivatives and their use as hypotensive agents” (Sankyo Company Limited, priority 1985, dated 1988).

Experiment [1] has as its system angiotensin I-induced hypertension. Nature of the experiment: inhibitory effect on angiotensin I-induced hypertension in vivo after oral administration to rats. The procedure: In addition, the compounds of Examples 2, 3, 7, 10 and 12 were tested in vivo. Each of these test compounds was administered orally to rats and its inhibitory effect on angiotensin I-induced hypertension was determined.

The target in a further experiment is T1, ACE (Oryctolagus cuniculus, UniProt P12822).
T1 construct: ACE extracted from rabbit lungs; from tissue; host or cells: rabbit lung
T1 sequence (P12822 34-1310): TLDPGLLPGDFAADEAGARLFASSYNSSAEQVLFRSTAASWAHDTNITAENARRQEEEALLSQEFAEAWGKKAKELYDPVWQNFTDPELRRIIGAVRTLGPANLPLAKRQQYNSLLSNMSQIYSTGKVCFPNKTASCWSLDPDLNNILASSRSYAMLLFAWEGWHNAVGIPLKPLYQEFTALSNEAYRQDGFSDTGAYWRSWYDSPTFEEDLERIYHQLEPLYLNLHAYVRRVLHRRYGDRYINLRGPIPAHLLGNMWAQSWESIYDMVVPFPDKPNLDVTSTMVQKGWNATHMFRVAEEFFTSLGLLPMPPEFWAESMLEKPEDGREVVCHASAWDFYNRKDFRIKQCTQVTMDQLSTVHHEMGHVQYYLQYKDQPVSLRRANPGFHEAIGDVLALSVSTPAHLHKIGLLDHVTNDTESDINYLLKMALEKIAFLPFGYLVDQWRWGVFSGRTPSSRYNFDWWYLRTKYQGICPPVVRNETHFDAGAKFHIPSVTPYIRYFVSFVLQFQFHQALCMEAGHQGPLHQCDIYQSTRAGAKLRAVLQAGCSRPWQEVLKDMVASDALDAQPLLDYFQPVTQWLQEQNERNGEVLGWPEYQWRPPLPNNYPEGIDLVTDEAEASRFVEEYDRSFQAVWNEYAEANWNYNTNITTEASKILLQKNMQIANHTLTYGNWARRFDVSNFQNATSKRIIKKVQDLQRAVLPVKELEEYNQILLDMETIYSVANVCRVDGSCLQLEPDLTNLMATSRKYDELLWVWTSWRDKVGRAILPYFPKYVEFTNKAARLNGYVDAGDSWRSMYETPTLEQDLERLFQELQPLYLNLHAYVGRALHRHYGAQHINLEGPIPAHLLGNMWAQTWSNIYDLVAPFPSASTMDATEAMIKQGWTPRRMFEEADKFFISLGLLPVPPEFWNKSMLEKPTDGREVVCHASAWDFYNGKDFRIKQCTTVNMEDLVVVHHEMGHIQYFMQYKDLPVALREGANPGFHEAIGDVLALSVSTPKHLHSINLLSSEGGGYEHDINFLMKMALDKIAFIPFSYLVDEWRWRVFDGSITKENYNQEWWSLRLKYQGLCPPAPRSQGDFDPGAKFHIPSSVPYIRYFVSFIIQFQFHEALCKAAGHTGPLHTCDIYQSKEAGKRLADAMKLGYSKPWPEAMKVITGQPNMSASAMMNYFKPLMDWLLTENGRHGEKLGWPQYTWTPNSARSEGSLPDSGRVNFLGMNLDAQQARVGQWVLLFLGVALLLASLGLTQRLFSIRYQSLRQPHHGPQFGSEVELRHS
Nature of the experiment: in vitro inhibition of ACE (procedure of D. W. Cushman et al., hippurylhistidylleucine substrate). The format is biochemical. The note with it: ACE extracted from rabbit lungs, pH 8.3, 37° C., 30 minutes, hippuric acid at 228 nm. An excerpt:
As noted above, the compounds of the present invention have the ability to inhibit the activity of ACE, the enzyme which converts angiotensin I to angiotensin II and also inactivates bradykinin. The physiological activity of the compounds of the invention can be evaluated by determining the concentration of the test compound required to inhibit the activity of ACE by 50% in vitro (IC50), for example by the procedure of D. W. Cushman et al. [Biochemical Pharmacology, 20, 1637 (1971)]. Specifically, solutions of ACE extracted from rabbit lungs and, as substrate, hippurylhistidylleucine, to which had been added the test compound at various concentrations, were added to a borate buffer solution containing sodium chloride, and the pH was adjusted to a value of 8.3. The enzymatic reaction was allowed to proceed at 37° C. for 30 minutes, after which time the reaction was terminated by adding 1N aqueous hydrochloric acid. The hippuric acid formed by this reaction was extracted with ethyl acetate and the solvent was then distilled from the extract. The residual hippuric acid was dissolved in water. The amount of hippuric acid in the resulting aqueous solution was determined by the absorbency to ultraviolet radiation at 228 nm. The resulting values were then plotted to form a curve indicating the relationship between the amount of hippuric acid formed and the concentration of the test compound. The IC50 value can be obtained by reading on this curve the concentration of the test compound which reduces the amount of hippuric acid formed to one half of that formed when no test compound is present.

With `CCCCOC(=O)[C@H](CCc1ccccc1)N[C@H]1CC[C@H](c2ccc(F)cc2)CN(CC(=O)O)C1=O.Cl` [Example 10, α-{3(S)-[1(S)-Butoxycarbonyl-3-phenylpropylamino]-6(R)-(p-fluorophenyl)-2-oxoperhydroazepin-1-yl}acetic acid hydrochloride], the “inhibitory effect on angiotensin I-induced hypertension” value (“inhibitory effect” below) in experiment [1] is “strong and lasting inhibitory effects”.
Still for that read-out and setting: as for `CCOC(=O)[C@H](CCc1ccccc1)N[C@H]1CC[C@H](c2ccc(F)cc2)CN(CC(=O)O)C1=O.Cl` [Example 7, α-{3(S)-[1(S)-Ethoxycarbonyl-3-phenylpropylamino]-6(R)-(p-fluorophenyl)-2-oxoperhydroazepin-1-yl}acetic acid hydrochloride], the entry is “strong and lasting inhibitory effects”.
A word on the IC50: it is the concentration needed to halve the response being measured. The low end stands for higher potency, the high end for lower potency. `O=C(O)CN1C[C@@H](c2ccc(F)cc2)CC[C@H](N[C@@H](CCc2ccccc2)C(=O)O)C1=O` [Test Compound C, α-{3(S)-[1(S)-carboxy-3-phenylpropylamino]-6(R)-(p-fluorophenyl)-2-oxoperhydroazepin-1-yl}acetic acid] yielded an IC50 against ACE of 1.7 nM.
Regarding `CCCCOC(=O)[C@H](CCc1ccccc1)N[C@H]1CC[C@H](c2ccccc2)CN(CC(=O)O)C1=O.Cl` [Example 12, α-{3(S)-[1(S)-Butoxycarbonyl-3-phenylpropylamino]-2-oxo-6(R)-phenylperhydroazepin-1-yl}acetic acid hydrochloride], the “inhibitory effect” value in experiment [1] was “strong and lasting inhibitory effects”.
Same read-out and setting: next, `CCOC(=O)[C@H](CCc1ccccc1)N[C@H]1CC[C@@H](c2ccccc2)CN(CC(=O)O)C1=O.Cl` (single isomer, unassigned) [Example 3]: “strong and lasting inhibitory effects”.
`O=C(O)CN1C[C@@H](c2ccccc2)CC[C@H](N[C@@H](CCc2ccccc2)C(=O)O)C1=O` (single isomer, unassigned) [Test Compound A] registered a 50% inhibitory concentration (IC50) against ACE of 1.4 nM.
The same measure, in the same setting: next, `O=C(O)CN1C[C@H](c2ccccc2)CC[C@H](N[C@@H](CCc2ccccc2)C(=O)O)C1=O` (single isomer, unassigned) [Test Compound B]: 2 nM.
With `CCOC(=O)[C@H](CCc1ccccc1)N[C@H]1CC[C@H](c2ccccc2)CN(CC(=O)O)C1=O.Cl` (single isomer, unassigned) [Example 2], the “inhibitory effect” value in experiment [1] is “strong and lasting inhibitory effects”.
